Experimental data as given in patent publication US20060183202A1 (priority 2003, published 2006).

Legend:
UGT73C4 = UGT73C4 (Arabidopsis thaliana, UniProt Q9ZQ97); type: cell-based
DOGT1 (UGT73C5) = DOGT1 (UGT73C5) (Arabidopsis thaliana, UniProt Q9ZQ94); type: cell-based
wheat ribosomes = type: biochemical
[1] = test system: Saccharomyces cerevisiae strain YZGA452; type: cell-based
[2] = test system: DOGT1 promoter (PDOGT1-GUS); design: species or system Arabidopsis thaliana; conditions: in vivo
DOGT1 mRNA expression = test system: DOGT1 mRNA expression; design: species or system Arabidopsis thaliana; conditions: in vivo
[3] = test system: A. thaliana wild-type Col-0; conditions: in vivo
laboratory animals = conditions: in vivo; cited from earlier work
coleoptile elongation = conditions: in vivo; cited from earlier work

Chain of UGT73C4 (Q9ZQ97 whole entry, looked up): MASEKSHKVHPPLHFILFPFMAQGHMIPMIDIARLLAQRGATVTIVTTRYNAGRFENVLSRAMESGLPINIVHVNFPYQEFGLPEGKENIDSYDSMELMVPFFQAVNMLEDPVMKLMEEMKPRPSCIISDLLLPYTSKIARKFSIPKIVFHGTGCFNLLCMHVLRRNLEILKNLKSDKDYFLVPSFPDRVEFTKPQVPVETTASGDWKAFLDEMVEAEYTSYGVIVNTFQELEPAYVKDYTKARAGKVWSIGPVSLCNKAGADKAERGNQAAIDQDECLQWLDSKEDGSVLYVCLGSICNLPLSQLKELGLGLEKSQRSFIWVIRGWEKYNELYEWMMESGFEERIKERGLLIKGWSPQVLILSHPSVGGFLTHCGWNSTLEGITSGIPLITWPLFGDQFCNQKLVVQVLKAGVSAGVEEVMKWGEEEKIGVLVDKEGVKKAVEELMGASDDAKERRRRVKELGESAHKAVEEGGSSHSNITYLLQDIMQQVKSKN
Chain of DOGT1 (UGT73C5) (Q9ZQ94 whole entry, looked up): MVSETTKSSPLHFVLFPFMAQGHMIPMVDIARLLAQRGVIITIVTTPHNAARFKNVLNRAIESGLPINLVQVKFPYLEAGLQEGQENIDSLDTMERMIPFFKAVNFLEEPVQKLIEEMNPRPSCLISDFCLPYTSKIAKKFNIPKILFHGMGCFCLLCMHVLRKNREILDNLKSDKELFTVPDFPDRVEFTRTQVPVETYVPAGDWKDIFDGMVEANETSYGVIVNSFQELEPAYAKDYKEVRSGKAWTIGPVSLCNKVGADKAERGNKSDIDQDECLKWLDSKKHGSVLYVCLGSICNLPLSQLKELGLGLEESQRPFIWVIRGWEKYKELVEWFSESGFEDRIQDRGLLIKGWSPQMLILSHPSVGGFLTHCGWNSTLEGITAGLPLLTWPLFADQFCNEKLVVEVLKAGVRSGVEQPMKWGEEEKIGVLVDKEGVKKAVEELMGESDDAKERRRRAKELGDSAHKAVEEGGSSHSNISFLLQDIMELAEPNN

Molecule: CC(=O)OC[C@]12[C@H](O)C(=O)C(C)=C[C@H]1O[C@@H]1[C@H](O)C[C@@]2(C)[C@]12CO2 [15-ADON, 15-acetyl-deoxynivalenol]
- resistance to the toxin conferred by UGT73C4 expression (detoxification) (UGT73C4): had the ability to detoxify
- resistance to the toxin conferred by DOGT1 expression (detoxification) (DOGT1 (UGT73C5)): protection

Molecule: CC1=C[C@H]2O[C@@H]3[C@H](O)C[C@](C)([C@@]2(CO)[C@H](O)C1=O)[C@]31CO1 [DON, deoxynivalenol]
- luminescence remaining (luciferase activity of control) (wheat ribosomes): 3.1%
- reporter enzyme (luciferase) activity compared to the control (100%) (wheat ribosomes): 36.8%
- concentration sufficient to completely inhibit growth of yeast [1]: 180 ppm
- resistance to the toxin conferred by UGT73C4 expression (detoxification) (UGT73C4): had the ability to detoxify
- resistance to the toxin conferred by DOGT1 expression (detoxification) (DOGT1 (UGT73C5)): protects against
- induction of PDOGT1-GUS reporter expression [2]: induce
- induction of DOGT1 transcript (RT-PCR) (DOGT1 mRNA expression): DON inducible expression
- main phytotoxic effect on wild-type plants [3]: slow germination

Molecule: C/C=C\C(=O)O[C@@H]1C[C@H]2O[C@@H]3C=C(C)C(=O)C[C@]3(C)[C@]1(C)[C@]21CO1 [TTC, trichothecin]
- resistance to the toxin conferred by UGT73C4 expression (detoxification) (UGT73C4): failed to confer resistance

Molecule: CC1=C[C@H]2O[C@@H]3[C@H](O)[C@@H](O)[C@](C)([C@@]2(CO)[C@H](O)C1=O)[C@]31CO1 [NIV, nivalenol]
- resistance to the toxin conferred by UGT73C4 expression (detoxification) (UGT73C4): failed to confer resistance
- resistance to the toxin conferred by DOGT1 expression (detoxification) (DOGT1 (UGT73C5)): lack of activity
- toxicity compared with DON in animal systems (laboratory animals): higher toxicity

Molecule: veruccarin A [VA]
- resistance to the toxin conferred by UGT73C4 expression (detoxification) (UGT73C4): failed to confer resistance

Molecule: CC1=CC2OC3C(O[C@@H]4O[C@H](CO)[C@@H](O)[C@H](O)[C@H]4O)CC(C)(C34CO4)C2(CO)C(O)C1=O (stereo partly drawn) [DON-3-glucoside, 3-β-D-Glucopyranosyl-4-deoxynivalenol]
- inhibition of luciferase activity (wheat ribosomes; 20 µM): 8%

Molecule: O=C(O)c1ccccc1O [SA, salicylic acid]
- induction of PDOGT1-GUS reporter expression [2]: No induction
- induction of DOGT1 transcript (RT-PCR) (DOGT1 mRNA expression): rather weakly

Molecule: CC(=O)OC[C@]12C[C@H](OC(=O)CC(C)C)C(C)=C[C@H]1O[C@@H]1[C@H](O)[C@@H](O)[C@@]2(C)[C@]12CO2 [HT-2-toxin, HT-2 toxin]
- resistance to the toxin conferred by UGT73C4 expression (detoxification) (UGT73C4): failed to confer resistance

Molecule: Acetyl-DON [ADON]
- overall toxicity compared with the non-acetylated form (DON) (coleoptile elongation): equivalent

Molecule: CC(=O)O[C@@H]1C[C@]2(C)[C@@]3(CO)[C@H](O)C(=O)C(C)=C[C@H]3O[C@H]1[C@@]21CO1 [3-ADON, 3-acetyl-deoxynivalenol]
- resistance to the toxin conferred by UGT73C4 expression (detoxification) (UGT73C4): failed to confer resistance
- resistance to the toxin conferred by DOGT1 expression (detoxification) (DOGT1 (UGT73C5)): inability to confer resistance
- fold less toxic than DON to laboratory animals (laboratory animals): about 2 fold

Molecule: CC/C=C\C[C@H]1C(=O)CC[C@@H]1CC(=O)O [JA, jasmonic acid]
- induction of PDOGT1-GUS reporter expression [2]: No induction
- induction of DOGT1 transcript (RT-PCR) (DOGT1 mRNA expression): weak induction

Molecule: diacetoxyscirpenol [DAS]
- resistance to the toxin conferred by UGT73C4 expression (detoxification) (UGT73C4): failed to confer resistance
